Each molecule was assayed on Mus musculus (assay: Percent inhibition of blood glucose concentration measured 30 min after 10 mg/kg dosing to fasted mice followed 15 min later by 1 g/kg oral glucose load).
Format: functional

Which inhibition in vivo at 10 mg/kg does the source give for `N[C@H](C(=O)N1CC(F)C(F)C1)C1CCCCC1` (stereo partly specified) here?
The inhibition in vivo at 10 mg/kg was 60%.

`N[C@H](C(=O)N1CC(F)(F)C(F)(F)C1)C1CCCCC1` was tested. Which inhibition in vivo at 10 mg/kg did it give?
The inhibition in vivo at 10 mg/kg was 59%.

With `N[C@H](C(=O)N1CCCC1)C1CCCCC1` as the molecule, how does the inhibition in vivo at 10 mg/kg read?
Its inhibition in vivo at 10 mg/kg is 69%.

`N[C@H](C(=O)N1CCC(F)(F)C1)C1CCCCC1` was tested. Which inhibition in vivo at 10 mg/kg did it give?
Its inhibition in vivo at 10 mg/kg is 78%.

With `N[C@H](C(=O)N1CC(F)(F)C1)C1CCCCC1` as the molecule, how does the inhibition in vivo at 10 mg/kg read?
Its inhibition in vivo at 10 mg/kg is 109%.

For `N[C@H](C(=O)N1CC(F)C1)C1CCCCC1`, which inhibition in vivo at 10 mg/kg is on record?
Its inhibition in vivo at 10 mg/kg is 70%.

Reference: ChEMBL document CHEMBL1143465, “New fluorinated pyrrolidine and azetidine amides as dipeptidyl peptidase IV inhibitors” (Bioorg Med Chem Lett, 2005)
